According to patent US9510598B2, “Nitrogen-containing heterocyclic compounds for plant disease control” (BAYER CROPSCIENCE AG, priority 2012, dated 2016):
Read-outs that look alike come from different tables or passages of the source.

Assays:
[1] = method [a]: pH 2.7, 0.1% formic acid in water / acetonitrile gradient
Protocol: Measurement of log P values was performed according EEC directive 79/831 Annex V.A8 by HPLC (High Performance Liquid Chromatography) on reversed phase columns with the following methods: ^[a]

[2] = format: physicochemical; details: linear gradient 10% to 95% acetonitrile
Sphaerotheca fuliginea = test: In vivo preventive test on Sphaerotheca fuliginea (powdery mildew on cucurbits); details: 500 ppm; gherkin plants sprayed 24 hours before contamination; grading 12 days after contamination vs control plants
Protocol: Gherkin plants (“Vert petit de Paris” variety), sown in starter cups on a 50/50 peat soil-pozzolana substrate and grown at 24° C., are treated at the Z11 cotyledon stage by spraying with the active ingredient prepared as described above. Plants, used as controls, are treated with the mixture of acetone/tween/DMSO/water not containing the active material. After 24 hours, the plants are contaminated by spraying the cotyledons with an aqueous suspension of Sphaerotheca fuliginea spores (100 000 spores per ml). The spores are collected from infected plants. […] Grading (% of efficacy) is carried out 12 days after the contamination, in comparison with the control plants.

Botrytis cinerea = test: In vivo preventive test on Botrytis cinerea (grey mould); details: 500 ppm; gherkin plants sprayed 24 hours before contamination; grading 4-5 days after contamination vs control plants
Procedure, shortened: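 Gherkin plants ("Vert petit de Paris") sprayed with compound at Z11 cotyledon stage, then inoculated 24 h later with B. cinerea spores (50 000/ml) in PDB/fructose/NH4NO3/KH2PO4 nutrient solution. Incubated at 17 °C, 80% RH; % efficacy versus solvent-treated controls graded 4–5 days after contamination.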

Septoria tritici = test: In vivo preventive test on Septoria tritici (leaf spot on wheat); details: 500 ppm; wheat plants sprayed 24 hours before contamination; grading 21 to 28 days after contamination vs control plants
Procedure, shortened: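 Scipion wheat at 1-leaf stage sprayed with compound, controls receiving acetone/tween/DMSO/water vehicle; 24 h later leaves inoculated with Septoria tritici spores (500 000 spores per ml). Efficacy (%) graded versus control plants 21 to 28 days after contamination.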

[3] = method [a]: HPLC/LC-MS on reversed phase at pH 2.7, 0.1% formic acid in water / acetonitrile
[4] = HPLC on reversed phase columns, method [a]: pH 2.7, 0.1% formic acid in water / acetonitrile

COC(=O)C1(C(C)=NO)CC(c2ccc3ncc(Br)cc3c2)=NO1 (centres unmarked) [II-39]
Log P ([1]; Table 2, formula (II)): 2.58[a]

CCOC(=O)C1(OC)CC(c2cc(C)c3ncc(Br)cc3c2)=NO1 (centres unmarked) [II-91]
Log P ([1]; Table 2, formula (II)): 3.99[a]

C#Cc1cnc2c(Cl)cc(C3=NOC(C)(C(=O)O)C3)cc2c1 (centres unmarked) [II-78]
Log P ([1]; Table 2, formula (II)): 2.20[a]

ON=Cc1ccc2ncc(Cl)cc2c1 [V-11]
Log P ([1]; Table 3, formula (V)): 1.78[a]

N#CC1(C(=O)O)CC(c2ccc3ncc(Br)cc3c2)=NO1 (centres unmarked) [II-94]
Log P ([1]; Table 2, formula (II)): 1.42[a]

ON=Cc1ccc2ncc(Br)cc2c1 [V-09]
Log P ([1]; Table 3, formula (V)): 1.88[a]

COC(=O)C1(C)CC(c2cc(C)c3ncc(Br)cc3c2)=NO1 (centres unmarked) [II80]
Log P ([1]; Table 2, formula (II)): 3.55[a]

CCOC(=O)C1(C)ON=C(c2ccc3ncc(Br)cc3c2)C1OCC (centres unmarked) [II-49]
Log P ([1]; Table 2, formula (II)): 3.99[a]

ON=C(Cl)c1cc(Cl)c2ncc(Br)cc2c1 [V-18]
Log P ([1]; Table 3, formula (V)): 3.10[a]

C#Cc1cnc2ccc(C3=NOC(C)(C(=O)OC)C3)cc2c1 (centres unmarked) [II-35]
Log P ([1]; Table 2, formula (II)): 2.35[a]

COC(=O)C1(c2ccccc2)CC(c2ccc3ncc(Br)cc3c2)=NO1 (racemic) [II-17]
Log P ([1]; Table 2, formula (II)): 2.69[a]

C#Cc1cnc2ccc(C3=NOC(CC)(C(=O)O)C3)cc2c1 (centres unmarked) [II-69]
Log P ([1]; Table 2, formula (II)): 2.05[a]

C#Cc1cnc2ccc(C3=NOC(OC)(C(=O)OCCCC(C)NC(C)CCCOC(=O)C4(OC)CC(c5ccc6ncc(C#C)cc6c5)=NO4)C3)cc2c1 (centres unmarked) [II-71]
Log P ([1]; Table 2, formula (II)): 2.20[a]

CC1(C(=O)O)CC(c2ccc3nc(Cl)c(Br)cc3c2)=NO1 (centres unmarked) [II-43]
Log P ([1]; Table 2, formula (II)): 2.57[a]

CC1(C(=O)O)CC(c2ccc3nc(C#N)c(Br)cc3c2)=NO1 (centres unmarked) [II-46]
Log P ([1]; Table 2, formula (II)): 2.23[a]

COC(=O)C1(C)CC(c2ccc3nc(C#N)c(I)cc3c2)=NO1 (centres unmarked) [II-68]
Log P ([1]; Table 2, formula (II)): 3.02[a]

O=C(O)C1(CF)CC(c2ccc3ncc(Br)cc3c2)=NO1 (centres unmarked) [II-36]
Log P ([1]; Table 2, formula (II)): 1.94[a]

CCOC(=O)C1(C)CC(c2ccc3ncccc3c2)=NO1 (racemic) [II-20]
Log P ([1]; Table 2, formula (II)): 1.6[a]

ON=C(Cl)c1cc2cccnc2c(F)c1F [V-02]
Log P ([1]; Table 3, formula (V)): 2.04[a]

ON=C(Cl)c1ccc2ncc(I)cc2c1 [V-14]
Log P ([1]; Table 3, formula (V)): 2.77[a]

COc1nc2ccc(C3=NOC(C)(C(=O)O)C3)cc2cc1Br (centres unmarked) [II-38]
Log P ([1]; Table 2, formula (II)): 2.64[a]

CCOC(=O)C1(CC)CC(c2ccc3ncc(Br)cc3c2)=NO1 (centres unmarked) [II-63]
Log P ([1]; Table 2, formula (II)): 3.53[a]

CC1(C(=O)O)CC(c2ccc3ncc(Br)cc3c2)=NO1 (racemic) [II-03]
Log P ([1]; Table 2, formula (II)): 1.94[a]

COC(=O)C1(SC)CC(c2ccc3ncc(Br)cc3c2)=NO1 (centres unmarked) [II-84]
Log P ([1]; Table 2, formula (II)): 3.05[a]

COc1cnc2ccc(C3=NOC(C)(C(=O)NC(C)C)C3)cc2c1 (centres unmarked) [compound 53]
log P [2, 3]: 2.08^[a] | % of efficacy (protection) (Sphaerotheca fuliginea): 88% | % of efficacy (protection) (Botrytis cinerea): 99% | % of efficacy (protection) (Septoria tritici): 97%

COC1(C(=O)NC(C)C)CC(c2cc(Cl)c3ncc(Br)cc3c2)=NO1 (centres unmarked) [compound 569]
log P [2, 4]: 3.15[a] | % of efficacy (protection) (Sphaerotheca fuliginea): 100% | % of efficacy (protection) (Botrytis cinerea): 100% | % of efficacy (protection) (Septoria tritici): 100%

Cc1nc(C)c(C(C)NC(=O)C2(C)CC(c3ccc4ncc(Br)cc4c3)=NO2)s1 (centres unmarked) [compound 296]
log P [2, 4]: 2.46[a] | % of efficacy (protection) (Sphaerotheca fuliginea): 100% | % of efficacy (protection) (Botrytis cinerea): 97% | % of efficacy (protection) (Septoria tritici): 100%

CCCn1cc(CNC(=O)C2(OC)CC(c3cc(C)c4ncc(Br)cc4c3)=NO2)c(C)n1 (centres unmarked) [compound 595]
log P [2, 4]: 3.27[a] | % of efficacy (protection) (Sphaerotheca fuliginea): 100% | % of efficacy (protection) (Botrytis cinerea): 100% | % of efficacy (protection) (Septoria tritici): 100%

CC1(C)OCC(CNC(=O)C2(C)CC(c3cc(Cl)c4ncc(Br)cc4c3)=NO2)O1 (centres unmarked) [compound 540]
log P [2, 4]: 3.17[a] | % of efficacy (protection) (Sphaerotheca fuliginea): 94% | % of efficacy (protection) (Botrytis cinerea): 100% | % of efficacy (protection) (Septoria tritici): 92%

CCn1cc(CNC(=O)C2(C(F)F)CC(c3ccc4ncc(Br)cc4c3)=NO2)c(C)n1 (centres unmarked) [compound 621]
log P [2, 4]: 2.64[a] | % of efficacy (protection) (Sphaerotheca fuliginea): 97% | % of efficacy (protection) (Botrytis cinerea): 83% | % of efficacy (protection) (Septoria tritici): 97%

C#Cc1cnc2ccc(C3=NOC(C)(C(=O)NCc4cncn4C)C3)cc2c1 (centres unmarked) [compound 155]
log P [2, 3]: 1.91^[a] | % of efficacy (protection) (Sphaerotheca fuliginea): 89% | % of efficacy (protection) (Botrytis cinerea): 100% | % of efficacy (protection) (Septoria tritici): 100%

CCCn1cc(CNC(=O)C2(C)CC(c3cc(C)c4ncc(Br)cc4c3)=NO2)c(C)n1 (centres unmarked) [compound 534]
log P [2, 4]: 3.29[a] | % of efficacy (protection) (Sphaerotheca fuliginea): 100% | % of efficacy (protection) (Botrytis cinerea): 100% | % of efficacy (protection) (Septoria tritici): 92%

C#Cc1cnc2ccc(C3=NOC(C)(C(=O)NCc4cccnc4)C3)cc2c1 (centres unmarked) [compound 103]
log P [2, 3]: 1.26^[a] | % of efficacy (protection) (Sphaerotheca fuliginea): 78% | % of efficacy (protection) (Botrytis cinerea): 98% | % of efficacy (protection) (Septoria tritici): 75%

C#Cc1cnc2ccc(C3=NOC(C)(C(=O)NCC4CCCO4)C3)cc2c1 (centres unmarked) [compound 132]
log P [2, 3]: 2.17^[a] | % of efficacy (protection) (Sphaerotheca fuliginea): 94% | % of efficacy (protection) (Botrytis cinerea): 98% | % of efficacy (protection) (Septoria tritici): 100%

C#Cc1cnc2c(C)cc(C3=NOC(C)(C(=O)NCc4cnc(C)cn4)C3)cc2c1 (centres unmarked) [compound 535]
log P [2, 4]: 2.50[a] | % of efficacy (protection) (Sphaerotheca fuliginea): 100% | % of efficacy (protection) (Botrytis cinerea): 100% | % of efficacy (protection) (Septoria tritici): 100%
